The values that follow are results of earlier work, collected in patent US7115628B2, “Bridged piperidine derivatives as melanocortin receptor agonists” (Merck & Co., Inc., priority 2001, dated 2006).

The subject of series [1] is patients with erectile dysfunction. The following applies: for duration of effect / onset of action: after an oral dose; for share of men/patients in whom effective (adequate response): oral.
The test system of series [2] is males with psychogenic erectile dysfunction.
The mark [3] stands for this setting: subcutaneous injection formulation.

Consider `CCCc1nn(C)c2c(=O)[nH]c(-c3cc(S(=O)(=O)N4CCN(C)CC4)ccc3OCC)nc12` [Sildenafil, sildenafil], for which, in series [1], the duration of effect entry is given as “about 4 hours”, the onset of action is 30 to 60 min and the “share of men/patients in whom effective (adequate response)” value is reported as “about 70%”.

As to `Cc1ccc(N(CC2=NCCN2)c2cccc(O)c2)cc1` [phentolamine], in series [1], the duration of effect is 2 h, the onset of action was 5 to 30 min and the “share of men/patients in whom effective (adequate response)” value is recorded as 35–40%.

Take “Ac-Nle-c[Asp-His-DPhe-Arg-Trp-Lys]-NH2 [MT-II]”: the “absorption into the systemic circulation” value in series [2] (in vivo, po) is “not absorbed into the systemic circulation”. Also, the response rate in series [2] (injected intramuscularly or subcutaneously) is listed as 75%. Besides, in series [2] (setting [3]), the duration of action entry is “approximately 2.5 hours” and the “time to onset of erection” value was 10 to 20 min.
